# Values quoted from earlier work, collected in patent US20030008844A1, “Use of sulodexide for the treatment of inflammatory bowel disease” (Keryx Biopharmaceuticals, Inc., priority 2001, published 2003).
# Experiments:
# [1] = test system: steroid-dependent chronically active Crohn's disease; details: placebo-controlled trial
# perianal Crohn's disease = details: uncontrolled trials
# ulcerative colitis = details: placebo-controlled trial
# mild to moderate UC = details: oral
smiles,measurement,setting,value
"CN(Cc1cnc2nc(N)nc(N)c2n1)c1ccc(C(=O)N[C@@H](CCC(=O)O)C(=O)O)cc1 [methotrexate, Methotrexate]",rates of clinical remission,[1],substantially improved
Cc1ncc([N+](=O)[O-])n1CCO [metronidazole],patients showing improvements,perianal Crohn's disease,practically all patients showed improvements
"CN1CCCC1c1cccnc1 (stereo not shown) [nicotine, Nicotine]",maintaining remission of ulcerative colitis,ulcerative colitis,ineffective
O=C(O)c1cc(/N=N/c2ccc(S(=O)(=O)Nc3ccccn3)cc2)ccc1O [sulfasalazine],efficacy in treatment of mild to moderate UC,mild to moderate UC,superior to placebo and similar or superior to steroid enemas
